These results are taken from patent US11730712B2, “Functionalized long-chain hydrocarbon mono- and di-carboxylic acids and derivatives thereof, and their use for the prevention or treatment of disease” (ESPERVITA THERAPEUTICS, INC., priority 2021, dated 2023).

The subject of one assay is Il-1b mRNA. The assay can be described thus: Il-1b mRNA by RT-qPCR. Format: cell-based.
In assay [1] the test system is tumor cancer pathway gene panel. The assay can be described thus: Nanostring nCounter Cancer panel gene expression in tumor of DEN-injected mice. The format is in vivo, mouse. As to conditions: 100 mg/kg, 4 weeks. As for the experimental part:
Nanostring Analysis. RNA was extracted from paired liver and tumor tissue from vehicle, Compound I-1 (100 mg/kg) and Compound I-32 (100 mg/kg) treated mice using an RNeasy kit (Qiagen, Calif., USA) as per manufacturer's protocol. All RNA samples passed the BioAnalyzer quality control test. The expression of target genes in liver and tumor were analyzed using the nCounter Fibrosis and Cancer Panel (NanoString Technologies, Inc., WA, USA), respectively according to manufacturer's protocol at the McMaster Genomics Facility. Technical and biological normalization against global geometric mean was performed in nSolver 4.0 software (NanoString Technologies). Technical normalization was performed in the nSolver software (version 4.0.70) by normalizing sample target raw counts to the geometric mean of positive control spike-ins. […] Pathway scores were calculated as the first principal component of the normalized expression values for all genes in each pathway and samples were compiled according to experimental groups to determine average pathway scores. Statistical significance was calculated between experimental groups using multiple t-tests and p-values were corrected for multiple comparisons using Benjamin-Hochberg false discovery rate. […]

`CC(C)(CCCCc1ccc(CCCCC(C)(C)C(=O)O)cc1)C(=O)O` [Compound I-1, 6-[4-(5-carboxy-5-methylhexyl)-phenyl]-2,2-dimethylhexanoic acid]: in the assay with Il-1b mRNA, the “marker of inflammation, Il-1b mRNA” value is recorded as “suppression”. The “effects on tumor gene expression pathways related to cancer progression and survival” value in assay [1] is “exerted pronounced effects on gene expression pathways related to cancer progression and survival”.
